From US20130131161A1, “METHODS AND COMPOSITIONS FOR CARDIOVASCULAR DISEASES AND CONDITIONS” (priority 2009, published 2013)

Test system: eNOS
Assay: eNOS protein abundance in HUVECs by immunochemical methods (Example 2)
Type: cell-based, human
Conditions: for Fold difference eNOS protein abundance (mean ± sd): (LA-419 5 μM)/(control); for eNOS protein abundance Fold difference (mean ± sd): LA-419 5 μM / control; for eNOS protein abundance Net increase (mean ± sd): avg 5 μM LA-419 − avg Cntl
Source text: eNOS Activity and Protein Abundance Measurements
Using immunochemical methods, there was no change in any condition in relation to eNOS protein abundance, Tables ss-L1.

Compound: CC(=O)SC1COC2C(O[N+](=O)[O-])COC12 (stereo not drawn) [LA-419, S-(6-Nitro-oxi-hexahydro-furo[3,2-b]furan-3-1-il)thioacetate]
- Fold difference eNOS protein abundance (mean ± sd) (Intron 4 b/a, a/a, c/c, n=14): 1.00 (0.09)
- Fold difference eNOS protein abundance (mean ± sd) (Intron 4 b/a, n=10): 1.01 (0.10)
- Fold difference eNOS protein abundance (mean ± sd) (Intron 4 b/b, b/a, c/c, n=42): 0.99 (0.08)
- Fold difference eNOS protein abundance (mean ± sd) (Intron 4 b/b, n=31): 0.98 (0.07)
- Fold difference eNOS protein abundance (mean ± sd) (Intron 4 c/c, n=1): 0.94 (0)
- Fold difference eNOS protein abundance (mean ± sd) (T786C T/T & T/C, n=45): 0.99 (0.08)
- Fold difference eNOS protein abundance (mean ± sd) (T-786C C/C, n=4): 0.93 (0.06)
- Fold difference eNOS protein abundance (mean ± sd) (T-786C T/C & C/C, n=27): 0.99 (0.09)
- Fold difference eNOS protein abundance (mean ± sd) (T-786C T/C, n=23): 1.00 (0.09)
- Fold difference eNOS protein abundance (mean ± sd) (T-786C T/T, n=22): 0.99 (0.06)
- eNOS protein abundance Fold difference (mean ± sd) (Caucasian, G894T + T-786C variant G/G + T/C (n=3), Table K): 1.10 (0.05)
- eNOS protein abundance Fold difference (mean ± sd) (Caucasian, G894T + T-786C variant G/G + T/T (n=7), reference group, Table K): 1.04 (0.04)
- eNOS protein abundance Fold difference (mean ± sd) (Caucasian, G894T + T-786C variant G/T + T/C (n=10), Table K): 1.00 (0.08)
- eNOS protein abundance Fold difference (mean ± sd) (Caucasian, G894T + T-786C variant G/T + T/T (n=3), Table K): 1.02 (0.09)
- eNOS protein abundance Fold difference (mean ± sd) (Caucasian, G894T + T-786C variant T/T + T/C (n=2), Table K): 1.04 (0.01)
- eNOS protein abundance Fold difference (mean ± sd) (Caucasian, G894T variant G/G (n=10), major allele homozygotes, Table J): 1.06 (0.05)
- eNOS protein abundance Fold difference (mean ± sd) (Caucasian, G894T variant G/G (n=10), Table I): 1.06 (0.05)
- eNOS protein abundance Fold difference (mean ± sd) (Caucasian, G894T variant G/T & T/T (n=16), minor allele carriers, Table J): 1.01 (0.07)
- eNOS protein abundance Fold difference (mean ± sd) (Caucasian, G894T variant G/T (n=13), Table I): 1.00 (0.08)
- eNOS protein abundance Fold difference (mean ± sd) (Caucasian, G894T variant T/T (n=3), Table I): 1.03 (0.02)
- eNOS protein abundance Fold difference (mean ± sd) (Caucasian, Genotype Combination = all minor allele carriers (n=19), Table L): 1.02 (0.08)
- eNOS protein abundance Fold difference (mean ± sd) (Caucasian, Genotype Reference = G/G + T/T (n=7), Table L): 1.04 (0.04)
- eNOS protein abundance Fold difference (mean ± sd) (Caucasian, Intron 4 variant b/a & a/a (n=6), minor allele carriers, Table J): 1.08 (0.06)
- eNOS protein abundance Fold difference (mean ± sd) (Caucasian, Intron 4 variant b/a (n=5), Table I): 1.07 (0.06)
- eNOS protein abundance Fold difference (mean ± sd) (Caucasian, Intron 4 variant b/b (n=18), major allele homozygotes, Table J): 1.00 (0.06)
- eNOS protein abundance Fold difference (mean ± sd) (Caucasian, Intron 4 variant b/b (n=18), Table I): 1.00 (0.06)
- eNOS protein abundance Fold difference (mean ± sd) (Caucasian, T-786C variant T/C & C/C (n=16), minor allele carriers, Table J): 1.02 (0.08)
- eNOS protein abundance Fold difference (mean ± sd) (Caucasian, T-786C variant T/C (n=15), Table I): 1.02 (0.08)
- eNOS protein abundance Fold difference (mean ± sd) (Caucasian, T-786C variant T/T (n=10), major allele homozygotes, Table J): 1.03 (0.06)
- eNOS protein abundance Fold difference (mean ± sd) (Caucasian, T-786C variant T/T (n=10), Table I): 1.03 (0.06)
- eNOS protein abundance Fold difference (mean ± sd) (G894T + T-786C variant T/T + C/C (n=1), Table K): 1.01 (0)
- eNOS protein abundance Fold difference (mean ± sd) (Intron 4 variant a/a (n=1), Table I): 1.14 (0)
- eNOS protein abundance Fold difference (mean ± sd) (T-786C variant C/C (n=1), Table I): 1.01 (0)
- eNOS protein abundance (any condition, Tables ss-L1): no change
- eNOS protein abundance Net increase (mean ± sd) (Combination of all G894T + T786C genotypes but G/G + T/T, n=31): −0.12 (0.53) pg/ug
- eNOS protein abundance Net increase (mean ± sd) (G894T + T786C G/G + T/C, n=8): −0.17 (0.77) pg/ug
- eNOS protein abundance Net increase (mean ± sd) (G894T + T786C G/G + T/T, n=18): −0.09 (0.35) pg/ug
- eNOS protein abundance Net increase (mean ± sd) (G894T + T786C G/T + C/C, n=1): −0.99 (0) pg/ug
- eNOS protein abundance Net increase (mean ± sd) (G894T + T786C G/T + T/C, n=13): −0.03 (0.42) pg/ug
- eNOS protein abundance Net increase (mean ± sd) (G894T + T786C G/T + T/T, n=4): −0.03 (0.46) pg/ug
- eNOS protein abundance Net increase (mean ± sd) (G894T + T786C T/T + C/C, n=3): −0.41 (0.46) pg/ug
- eNOS protein abundance Net increase (mean ± sd) (G894T + T786C T/T + T/C, n=2): 0.17 (0.02) pg/ug
- eNOS protein abundance Net increase (mean ± sd) (G894T G/G, n=26): −0.12 (0.50) pg/ug
- eNOS protein abundance Net increase (mean ± sd) (G894T G/T & T/T, n=23): −0.10 (0.45) pg/ug
- eNOS protein abundance Net increase (mean ± sd) (G894T G/T, n=18): −0.08 (0.46) pg/ug
- eNOS protein abundance Net increase (mean ± sd) (G894T T/T, n=5): −0.18 (0.45) pg/ug
- eNOS protein abundance Net increase (mean ± sd) (Intron 4 a/a, n=3): −0.05 (0.69) pg/ug
- eNOS protein abundance Net increase (mean ± sd) (Intron 4 b/a, a/a, c/c, n=14): −0.05 (0.55) pg/ug
- eNOS protein abundance Net increase (mean ± sd) (Intron 4 b/a, n=10): −0.02 (0.56) pg/ug
- eNOS protein abundance Net increase (mean ± sd) (Intron 4 b/b, n=31): −0.14 (0.45) pg/ug
- eNOS protein abundance Net increase (mean ± sd) (Intron 4 c/c, n=1): −0.44 (0) pg/ug
- eNOS protein abundance Net increase (mean ± sd) (T786C C/C, n=4): −0.55 (0.47) pg/ug
- eNOS protein abundance Net increase (mean ± sd) (T786C T/C & C/C, n=27): −0.13 (0.55) pg/ug
- eNOS protein abundance Net increase (mean ± sd) (T786C T/C, n=23): −0.06 (0.54) pg/ug
- eNOS protein abundance Net increase (mean ± sd) (T786C T/T, n=22): −0.08 (0.36) pg/ug
